From patent US4713386A, “Tetrahydroazeto [2,1-a]isoquinolines and methods for treating depression” (McNeilab, Inc., priority 1986, dated 1987)

Tested on: Mouse
Test: Mouse Tetrabenazine Antagonism Assay (TBZ 32 mg/kg i.p.; exploratory activity and reversal of ptosis)
Format: in vivo
Details: mice, (1:1) fumarate salt
Method: In this test, mice are injected with a test compound 30 min prior to the injection of 32 mg/kg i.p. of TBZ, a drug which decreases normal exploratory activity and induces ptosis. After 30 min. the mice are tested for two parameters: the presence of normal exploratory activity (EA) and reversal of ptosis (Pt). A control group of mice is given only 32 mg/kg i.p. of TBZ. The biological activity of the novel compounds of this invention may be understood by the representative, nonlimiting example, presented in Table I.

[1] = @ 3 mg/kg i.p., 30 min before 32 mg/kg i.p. TBZ

## O=C(O)/C=C/C(=O)O.c1ccc([C@@H]2CN3CC[C@@H]3c3ccccc32)cc1 (relative stereo) [Example 1d, trans-1,4,5,9b-Tetrahydro-5-phenyl-2H-azeto[2,1-a]isoquinoline (E)-2-butenedioate]
Mus musculus, ip, i.p., TBZ 32 mg/kg i.p.
  ED50: 1.25 mg/kg
[1]
  % inhibition EA (exploratory activity): 50%
  % inhibition Pt (reversal of ptosis): 88%
